One test has as its target T1, CDK9 (Homo sapiens, UniProt P50750).
T1 construct: endogenous in cells; host or cells: MDA-MB-231
Description: CDK protein degradation activity (Western blotting), CDK9. To be noted: MDA-MB-231 cells, 16 hours, Western blot. Format: cell-based. The essentials: (§1)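 Seed MDA-MB-231 cells; next day add compound to 100 nM, 1 μM or 10 μM final, or DMSO. After 16 h, harvest and lyse in Triton X-100 buffer, run SDS-PAGE, probe for CDK2, CDK9 and tubulin.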
A general note: In western blotting, separated proteins are transferred to a membrane and probed.

In a further test the target is T2, CDK2 (Homo sapiens, UniProt P24941).
T2 construct: endogenous in cells; host or cells: MDA-MB-231
Put plainly: CDK protein degradation activity (Western blotting), CDK2. The format is cell-based. To be noted: MDA-MB-231 cells, 16 hours, Western blot. In short, it runs like this: as §1

T1 sequence (P50750 whole entry): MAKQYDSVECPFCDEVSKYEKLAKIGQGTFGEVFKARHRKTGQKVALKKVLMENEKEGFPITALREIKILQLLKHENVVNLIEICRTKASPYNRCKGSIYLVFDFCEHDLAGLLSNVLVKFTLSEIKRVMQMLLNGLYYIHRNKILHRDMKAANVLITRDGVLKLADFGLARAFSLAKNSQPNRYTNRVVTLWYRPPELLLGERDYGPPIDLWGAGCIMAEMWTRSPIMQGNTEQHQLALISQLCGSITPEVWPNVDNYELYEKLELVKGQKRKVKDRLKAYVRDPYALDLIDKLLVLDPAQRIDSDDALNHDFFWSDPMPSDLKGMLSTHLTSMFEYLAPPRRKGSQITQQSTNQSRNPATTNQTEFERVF

Consider `O=C1CC[C@H](N2C(=O)c3cc(F)c(N4CCC(CCN5CCN(c6ccc(Nc7ncnc8c7ncn8C7CC(NC(=O)c8c(Cl)cccc8Cl)C7)cc6)CC5)CC4)cc3C2=O)C(=O)N1` (stereo partly drawn) [Compound 406, 2,6-dichloro-N-((1s,3s)-3-(6-((4-(4-(2-(1-(2-(2,6-dioxopiperidin-3-yl)-6-fluoro-1,3-dioxoisoindolin-5-yl)piperidin-4-yl)ethyl)piperazin-1-yl)phenyl)amino)-9H-purin-9-yl)cyclobutyl)benzamide], for which, at CDK9, the “Enzyme degradation CDK9 (% remaining) @ 0.1 μM” value is 0/0/0%, the “Enzyme degradation CDK9 (% remaining) @ 1 μM” value is 0/0/0% and the “Enzyme degradation CDK9 (% remaining) @ 10 μM” value is recorded as 0/0/0%. On CDK2, the “Enzyme degradation CDK2 (% remaining) @ 0.1 μM” value is recorded as 30/30/30%, the “Enzyme degradation CDK2 (% remaining) @ 1 μM” value is reported as 30/30/30% and the “Enzyme degradation CDK2 (% remaining) @ 10 μM” value was 30/30/30%.

With `O=C1CCC(n2nnc3ccc(N4CCC(CCN5CCN(c6ccc(Nc7ncnc8c7ncn8[C@H]7C[C@@H](NC(=O)c8c(Cl)cccc8Cl)C7)cc6)CC5)CC4)cc3c2=O)C(=O)N1` (stereo partly drawn) [Compound 407, 2,6-dichloro-N-((1s,3s)-3-(6-((4-(4-(2-(1-(3-(2,6-dioxopiperidin-3-yl)-4-oxo-3,4-dihydrobenzo[d][1,2,3]triazin-6-yl)piperidin-4-yl)ethyl)piperazin-1-yl)phenyl)amino)-9H-purin-9-yl)cyclobutyl)benzamide], at CDK9, the “Enzyme degradation CDK9 (% remaining) @ 0.1 μM” value is on record as 0/0/0%, the “Enzyme degradation CDK9 (% remaining) @ 1 μM” value is 0/0/0% and the “Enzyme degradation CDK9 (% remaining) @ 10 μM” value is 0/0/0%. Moreover, at CDK2, the “Enzyme degradation CDK2 (% remaining) @ 0.1 μM” value is reported as 60/60/60%, the “Enzyme degradation CDK2 (% remaining) @ 1 μM” value is given as 60/60/60% and the “Enzyme degradation CDK2 (% remaining) @ 10 μM” value is recorded as 60/60/60%.

Regarding `O=C1CC[C@H](N2C(=O)c3ccc(N4CCC5(CC4)CC(N4CCN(c6ccc(Nc7ncnc8c7ncn8[C@H]7C[C@@H](NC(=O)Cc8ccccc8)C7)cc6)CC4)C5)cc3C2=O)C(=O)N1` [Compound 210, N-((1s,3s)-3-(6-((4-(4-(7-(2-(2,6-dioxopiperidin-3-yl)-1,3-dioxoisoindolin-5-yl)-7-azaspiro[3.5]nonan-2-yl)piperazin-1-yl)phenyl)amino)-9H-purin-9-yl)cyclobutyl)-2-phenylacetamide], at CDK9, the “Enzyme degradation CDK9 (% remaining) @ 0.1 μM” value is on record as 10%, the “Enzyme degradation CDK9 (% remaining) @ 1 μM” value is on record as 0% and the “Enzyme degradation CDK9 (% remaining) @ 10 μM” value was determined as 0%. Further, on CDK2, the “Enzyme degradation CDK2 (% remaining) @ 0.1 μM” value is recorded as 30/30/30%, the “Enzyme degradation CDK2 (% remaining) @ 1 μM” value was 30/30/30% and the “Enzyme degradation CDK2 (% remaining) @ 10 μM” value was 30/30/30%.

Take `O=C1CC[C@H](N2C(=O)c3cccc(NCC(=O)N4CCN(CC5CCN(c6ccc(Nc7ncnc8c7ncn8[C@H]7C[C@@H](NC(=O)Cc8ccccc8)C7)cc6)CC5)CC4)c3C2=O)C(=O)N1` [Compound 322, N-((1s,3s)-3-(6-((4-(4-((4-((2-(2,6-dioxopiperidin-3-yl)-1,3-dioxoisoindolin-4-yl)glycyl)piperazin-1-yl)methyl)piperidin-1-yl)phenyl)amino)-9H-purin-9-yl)cyclobutyl)-2-phenylacetamide]: on CDK9, the “Enzyme degradation CDK9 (% remaining) @ 0.1 μM” value is 20%, the “Enzyme degradation CDK9 (% remaining) @ 1 μM” value was 10% and the “Enzyme degradation CDK9 (% remaining) @ 10 μM” value is 20%. Also, on CDK2, the “Enzyme degradation CDK2 (% remaining) @ 0.1 μM” value is 20%, the “Enzyme degradation CDK2 (% remaining) @ 1 μM” value is on record as 10% and the “Enzyme degradation CDK2 (% remaining) @ 10 μM” value is given as 20%.

As for `O=C1CC[C@H](N2C(=O)c3cc(F)c(N4CCC5(CC4)CC(N4CCN(c6ccc(Nc7ncnc8c7ncn8[C@H]7C[C@@H](NC(=O)Cc8ccccc8)C7)cc6)CC4)C5)cc3C2=O)C(=O)N1` [Compound 244, N-((1s,3s)-3-(6-((4-(4-(7-(2-(2,6-dioxopiperidin-3-yl)-6-fluoro-1,3-dioxoisoindolin-5-yl)-7-azaspiro[3.5]nonan-2-yl)piperazin-1-yl)phenyl)amino)-9H-purin-9-yl)cyclobutyl)-2-phenylacetamide], at CDK9, the “Enzyme degradation CDK9 (% remaining) @ 0.1 μM” value was 60%, the “Enzyme degradation CDK9 (% remaining) @ 1 μM” value amounted to 0% and the “Enzyme degradation CDK9 (% remaining) @ 10 μM” value was determined as 0%. Further, at CDK2, the “Enzyme degradation CDK2 (% remaining) @ 0.1 μM” value is listed as 70%, the “Enzyme degradation CDK2 (% remaining) @ 1 μM” value is reported as 50% and the “Enzyme degradation CDK2 (% remaining) @ 10 μM” value is on record as 40%.

Consider `O=C1CC[C@@H](c2ccc(OCC(=O)N3CCC4(CC3)CC(N3CCC(c5ccc(Nc6ncnc7c6ncn7C6CC(NC(=O)Cc7ccccc7)C6)cc5)CC3)C4)cc2)C(=O)N1` (stereo partly drawn) [Compound 284, N-((1s,3s)-3-(6-((4-(1-(7-(2-(4-(2,6-dioxopiperidin-3-yl)phenoxy)acetyl)-7-azaspiro[3.5]nonan-2-yl)piperidin-4-yl)phenyl)amino)-9H-purin-9-yl)cyclobutyl)-2-phenylacetamide], for which, on CDK9, the “Enzyme degradation CDK9 (% remaining) @ 0.1 μM” value is on record as 0/0/0%, the “Enzyme degradation CDK9 (% remaining) @ 1 μM” value is 0/0/0% and the “Enzyme degradation CDK9 (% remaining) @ 10 μM” value is 0/0/0%. On CDK2, the “Enzyme degradation CDK2 (% remaining) @ 0.1 μM” value amounted to 40%, the “Enzyme degradation CDK2 (% remaining) @ 1 μM” value worked out at 50% and the “Enzyme degradation CDK2 (% remaining) @ 10 μM” value is given as 60%.

Regarding `Cc1cccc(C(=O)N[C@H]2C[C@@H](n3cnc4c(NC5CCN(CCC6CCN(c7cccc8c7C(=O)N([C@H]7CCC(=O)CC7=O)C8=O)CC6)CC5)ncnc43)C2)n1` [Compound 36, N-((1s,3s)-3-(6-((1-(2-(1-(2-(2,4-dioxocyclohexyl)-1,3-dioxoisoindolin-4-yl)piperidin-4-yl)ethyl)piperidin-4-yl)amino)-9H-purin-9-yl)cyclobutyl)-6-methylpicolinamide], on CDK9, the “Enzyme degradation CDK9 (% remaining) @ 0.1 μM” value was 30%, the “Enzyme degradation CDK9 (% remaining) @ 1 μM” value is 10% and the “Enzyme degradation CDK9 (% remaining) @ 10 μM” value was found to be 20%. At CDK2, the “Enzyme degradation CDK2 (% remaining) @ 0.1 μM” value is 100/100/100%, the “Enzyme degradation CDK2 (% remaining) @ 1 μM” value is 100/100/100% and the “Enzyme degradation CDK2 (% remaining) @ 10 μM” value is 100/100/100%.

Take `O=C1CC[C@H](N2C(=O)c3cccc(N4CC(N5CCC6(CC5)CC(N5CCN(c7ccc(Nc8ncnc9c8ncn9[C@H]8C[C@@H](NC(=O)Cc9ccccc9)C8)cc7)CC5)C6)C4)c3C2=O)C(=O)N1` [Compound 270, N-((1s,3s)-3-(6-((4-(4-(7-(1-(2-(2,6-dioxopiperidin-3-yl)-1,3-dioxoisoindolin-4-yl)azetidin-3-yl)-7-azaspiro[3.5]nonan-2-yl)piperazin-1-yl)phenyl)amino)-9H-purin-9-yl)cyclobutyl)-2-phenylacetamide]: on CDK9, the “Enzyme degradation CDK9 (% remaining) @ 0.1 μM” value was 40%, the “Enzyme degradation CDK9 (% remaining) @ 1 μM” value was 30% and the “Enzyme degradation CDK9 (% remaining) @ 10 μM” value turned out to be 30%. At CDK2, the “Enzyme degradation CDK2 (% remaining) @ 0.1 μM” value worked out at 40%, the “Enzyme degradation CDK2 (% remaining) @ 1 μM” value is 30% and the “Enzyme degradation CDK2 (% remaining) @ 10 μM” value was 30%.

The record behind these values is US20260125382A1, “COMPOUNDS FOR INHIBITING OR DEGRADING CDK2 AND/OR CDK9 AND MEDICINAL USE THEREOF” (KOREA RESEARCH INSTITUTE OF CHEMICAL TECHNOLOGY, priority 2022, published 2026).
